The source of these data is publication PMC11998009, “Identification of a New FtsZ Inhibitor by Virtual Screening, Mechanistic Insights, and Structure–Activity Relationship Analyses” (ACS Infectious Diseases, 2025).

The structures appear in SMILES notation. Like-named read-outs stand apart in the source and are kept apart here. A value given as a limit tells only on which side of the number the result lay.

As usually defined, the MIC is the lowest concentration found to suppress growth. The IC50 is the point on the concentration scale where inhibition reaches its midpoint. The low end stands for higher potency, the high end for lower potency.

The test system of series [1] is A. baumannii ATCC19606. Nature of the series: MIC / checkerboard with PaβN. It is filed as cell-based.
The test system of series [2] is G. mellonella. Nature of the series: Toxicity in uninfected G. mellonella larvae. It is filed as in vivo, Galleria mellonella. Particulars: 40 mg/kg.
In series [3] the target is T1, FtsZSa (Staphylococcus aureus, UniProt P0A031).
T1 sequence (P0A031 1-390): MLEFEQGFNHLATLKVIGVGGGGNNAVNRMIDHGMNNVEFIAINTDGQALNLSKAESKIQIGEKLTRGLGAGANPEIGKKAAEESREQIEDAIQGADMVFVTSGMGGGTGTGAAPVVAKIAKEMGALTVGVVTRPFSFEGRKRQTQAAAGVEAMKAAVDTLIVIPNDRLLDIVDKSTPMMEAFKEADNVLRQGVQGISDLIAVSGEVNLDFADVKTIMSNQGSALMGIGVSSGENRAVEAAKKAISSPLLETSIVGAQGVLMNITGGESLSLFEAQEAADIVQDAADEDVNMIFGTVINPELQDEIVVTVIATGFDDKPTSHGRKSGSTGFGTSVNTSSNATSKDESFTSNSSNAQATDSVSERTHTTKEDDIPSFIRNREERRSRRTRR
Nature of the series: FtsZSa polymerization, 90° light scattering.

Series [4] relates to S. aureus ATCC25923 biofilms. Nature of the series: Biofilm eradication assay (CFU counting, CLSM). The class given is cell-based.
Series [5] addresses T1, FtsZSa. Nature of the series: FtsZSa polymerization, sedimentation assay. Particulars: sedimentation assay, 100 μM.
In series [6] the test system is S. aureus ATCC25923. Nature of the series: Single-cell time-lapse microscopy, cell area. Particulars: 2 × MIC (4 μg/mL), 5 h. It is filed as cell-based. On the procedure: (§1) page 19: […] MIC method. […] The cultures were incubated at 37°C, and aliquots were […] Serial dilutions were spread on LB solid medium and the plates were incubated at 37°C O/N. Then, the number of colonies was determined. Killing curves were constructed by plotting the log10 CFU/ml vs. time. Bactericidal activity was defined as a reduction of 99.9% (≥3 log 10) of the total number of CFU/ml in the original inoculum (NCCLS, 1999). Bacteriostatic activity was defined as maintenance of the original inoculum concentration or a reduction of less than 99.9% (<3 log10) of the total number of CFU/ml in the original inoculum. Live cell imaging experiments […] Cells were diluted to OD of 0.02 in fresh TSB containing in the case of strain TD276 anhydrotetracycline 0.4 μM to induce the expression of mCherryFtsZ. After 1 hour of incubation at 37°C 2 μl of the culture was spotted onto an agar pad prepared with TSB and […] For time-lapse microscopy experiments, an inverted widefield microscope (Leica DMi8S) equipped with a 100× oil immersion objective (HC PL FLUOTAR 100x/1.32 OIL) was used. […] Images were recorded at 15-min intervals and up to 5 h. Bacteria were visualized in phase- contrast and fluorescence with the required parameters. […] S. aureus […] in fluorescence (with the required parameters for Hoechst and mCherry) using a 160x objective (HC PL APO S19

The subject of series [7] is S. aureus ATCC25923. Nature of the series: Time-killing curve. It is filed as cell-based. On the procedure:
as §1

Series [8] concerns mammalian tubulin. Nature of the series: Tubulin polymerization assay, fluorescence based. The class given is biochemical. Particulars: for Vmax of tubulin polymerization: DMSO control 3.78.
Series [9] has as its system S. aureus ATCC25923. Nature of the series: Galleria mellonella infection model.

For `COc1ccc(Cc2nnc(SC3=CS(=O)(=O)c4ccccc43)o2)cc1` [C11], the MIC in [1] (A. baumannii ATCC19606, C11 alone) is at least 128 µg/mL; in series [1] (Acinetobacter baumannii, ATCC19606, A. baumannii ATCC19606, + PaβN 64 µg/ml, read-out: MIC) it was 1 µg/mL; in [1] (Acinetobacter baumannii, ATCC19606, A. baumannii ATCC19606, C11 alone, read-out: MIC), at least 128 µg/mL. Moreover, the “Toxicity for G. mellonella (survival of not infected, treated larvae)” value in series [2] is on record as “not toxic”. The compound also gave an IC50 in series [3] of 48 µM. Besides, the “Biofilm eradication, viable cells by CFU counting” value in series [4] (2 × MIC, 4 μg/mL, 24 h treatment) is “reduce the number of viable cells”. The “Biofilm eradication by CLSM” value in [4] (increasing concentrations (4, 8, 16 μg/ml)) is recorded as “eradicating the majority of the attached cells”. Further, in series [5], the “Effect on FtsZSa polymers formation” value was “inhibitory effect on FtsZSa polymerization”. For the same compound, the “Area of the cells compared to untreated cells” value in series [6] was “significantly larger”. Also, the Time-kill effect entry in series [7] (1- or 2-fold the MIC, 24 h) is recorded as “Bacteriostatic effect”; in [7] (half of the MIC) it was “slight regrowth”. Further, the “Vmax of tubulin polymerization” value was found to be 3.5 mOD/min in series [8] (5 μM), 3 mOD/min in [8] (10 μM) and 2.8 mOD/min in series [8] (25 μM). Also, the “Decrease of tubulin polymerization” value in [8] (25 μM (9.6 μg/mL), highest tested concentration) came to 20%. Moreover, the “Survival rate of infected larvae” value in [9] (40 mg/kg 2 h after infection, 2 days postinfection, DMSO group 46%) is 77%; in series [9] (40 mg/kg, after 6 days) it was “significantly higher than the mock-treated group”; in series [9] (40 mg/kg, three days postinfection, DMSO group 32%) it was 58%.
